# Test results as given in patent US20070141092A1, “BIGUANIDE COMPOSITION AND METHOD OF TREATMENT AND PREVENTION OF VIRAL INFECTIONS” (priority 2005, published 2007).
# Tests used:
# Assay type in all cases: cell-based
# Cytomegalovirus = experiment: Viral Suspension Assay, Cytomegalovirus; conditions: both 30 ppm and 99 ppm
# Description: (§1) The Viral Suspension Assay was used to evaluate the antiviral properties of Alexidine against Adenovirus Type-4, Adenovirus Type-8 and Adenovirus Type-19 and Cytomegalovirus when exposed in suspension for 1, 2, 5, and 10 minutes. The presence of virus (infectivity) was determined by monitoring the virus specific cytopathic effect (CPE) on an appropriate indicator cell line, rabbit kidney. Results are reported as Percent (%) Reduction in virus titer as compared to the corresponding virus control titer (Table 1). The titer of the virus controls were 7.5 log10 following the one minute exposure time; 7.0 log10 following the two minute exposure time; and 7.75 log10 following both the five and ten minute exposure times.
# Adenovirus Type-4 = experiment: Viral Suspension Assay, Adenovirus Type-4; conditions: both 30 ppm and 99 ppm
# Description: as §1
# Adenovirus Type-8 = experiment: Viral Suspension Assay, Adenovirus Type-8; conditions: both 30 ppm and 99 ppm
# Description: as §1
# [1] = test system: Herpes simplex virus type 1; experiment: Viral Suspension Assay, HSV-1 (CPE on rabbit kidney indicator cells)
# Description: as §1, with “Herpes simplex virus type 1” for “Adenovirus Type-4, Adenovirus Type-8 and Adenovirus Type-19 and Cytomegalovirus”
structure (smiles),measurement,setting,value
"CCCCC(CC)CNC(=N)NC(=N)NCCCCCCNC(=N)NC(=N)NCC(CC)CCCC (centres unmarked) [Alexidine, 1,1′-hexamethylene-bis[5-(2-ethylhexyl)biguanide]]",Effectiveness against Cytomegalovirus (in words),Cytomegalovirus,somewhat effective
same,Effectiveness against Adenovirus Type-4 (in words),Adenovirus Type-4,somewhat effective
same,Effectiveness against Adenovirus Type-8 (in words),Adenovirus Type-8,somewhat effective
same,Effectiveness against herpes simplex type-1 virus (in words),[1]; both 30 ppm and 99 ppm,effective agents
same,Overall activity against Herpes Simplex-1 (in words),[1]; summary statement,potent antimicrobial agent
